Values joined by “and” are separate entries in the source; they are usually repeats but may differ in a detail not shown here. Equal entries are not always repeated. Where a SMILES comes first, the peptide text is derived from it. [ ]: non-standard residue; d: D form. Hyp = O=C(O)[C@@H]1C[C@@H](O)CN1
Tested on: human PBMCs
Test: PBMC cell counts (total, live, viability; trypan blue, Countess) with and without LPS and test articles (Example 9)
Assay type: cell-based
In short: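 Human PBMCs were pretreated 2 h with test articles (0.001–100 uM) or 0.5% DMSO vehicle, then given LPS at 5 ug/ml or no LPS, in triplicate. After 24 hr, total and live cells and viability were counted by 1:1 trypan blue staining on an automated counter.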

[1] = PBMC + LPS(5 ug/ml) + compound 0.001 uM, 24 hr
[2] = PBMC + LPS(5 ug/ml) + compound 0.01 uM, 24 hr
[3] = PBMC + LPS(5 ug/ml) + compound 0.1 uM, 24 hr
[4] = PBMC + LPS(5 ug/ml) + compound 1 uM, 24 hr
[5] = PBMC + LPS(5 ug/ml) + compound 10 uM, 24 hr
[6] = PBMC + LPS(5 ug/ml) + compound 100 uM, 24 hr
[7] = PBMC + LPS(5 ug/ml) + test article 0.001 uM, Mean
[8] = PBMC + LPS(5 ug/ml) + test article 0.001 uM, single replicates
[9] = PBMC + LPS(5 ug/ml) + test article 0.01 uM, Mean
[10] = PBMC + LPS(5 ug/ml) + test article 0.01 uM, single replicates
[11] = PBMC + LPS(5 ug/ml) + test article 0.1 uM, Mean
[12] = PBMC + LPS(5 ug/ml) + test article 0.1 uM, single replicates
[13] = PBMC + LPS(5 ug/ml) + test article 1 uM, Mean
[14] = PBMC + LPS(5 ug/ml) + test article 1 uM, single replicates
[15] = PBMC + LPS(5 ug/ml) + test article 10 uM, Mean
[16] = PBMC + LPS(5 ug/ml) + test article 10 uM, single replicates
[17] = PBMC + LPS(5 ug/ml) + test article 100 uM, Mean
[18] = PBMC + LPS(5 ug/ml) + test article 100 uM, single replicates
[19] = PBMC + LPS(5 ug/ml), test article 0.001 uM, Mean
[20] = PBMC + LPS(5 ug/ml), test article 0.001 uM, single replicates
[21] = PBMC + LPS(5 ug/ml), test article 0.01 uM, Mean
[22] = PBMC + LPS(5 ug/ml), test article 0.01 uM, single replicates
[23] = PBMC + LPS(5 ug/ml), test article 0.1 uM, Mean
[24] = PBMC + LPS(5 ug/ml), test article 0.1 uM, single replicates
[25] = PBMC + LPS(5 ug/ml), test article 1 uM, Mean
[26] = PBMC + LPS(5 ug/ml), test article 1 uM, single replicates
[27] = PBMC + LPS(5 ug/ml), test article 10 uM, Mean
[28] = PBMC + LPS(5 ug/ml), test article 10 uM, single replicates

Compound: CC(C)C[C@H](NC(=O)CNC(=O)[C@H](CC(=O)O)NC(=O)[C@H](CCC(N)=O)NC(=O)CNC(=O)[C@@H]1C[C@@H](O)CN1)C(=O)N[C@@H](C)C(=O)NCC(=O)N1CCC[C@H]1C(=O)N[C@@H](CCCCN)C(=O)O [YY-101] (H-[Hyp]GQDGLAGPK-OH; N-terminus and C-terminus assumed)
- Live cell [1]: 6.5 ± 0.4 10^5/ml
- Total cell [1]: 7.7 ± 0.6 10^5/ml
- Live cell [2]: 6.2 ± 0.1 10^5/ml
- Total cell [2]: 8.1 ± 0.6 10^5/ml
- Live cell [3]: 5.9 ± 0.3 10^5/ml
- Total cell [3]: 7.8 ± 0.8 10^5/ml
- Live cell [4]: 6.5 ± 0.3 10^5/ml
- Total cell [4]: 9.8 ± 0.6 10^5/ml
- Live cell [5]: 6.7 ± 0.5 10^5/ml
- Total cell [5]: 9.1 ± 1.1 10^5/ml
- Live cell [6]: 5.8 ± 0.4 10^5/ml
- Total cell [6]: 7.8 ± 1.0 10^5/ml
- Live cell [7]: 6.5 10^5/ml
- Live cell (10^5/ml) [7]: 6.5 10^5/ml
- Live cell, Mean [7]: 6.5 10^5/ml
- Live cell (PBMC + LPS(5 ug/ml) + test article 0.001 uM, individual replicates (1st, 2nd, 3rd)): 5.7 10^5/ml and 7.1 10^5/ml and 6.6 10^5/ml
- Live cell [8]: 5.7 10^5/ml and 7.1 10^5/ml and 6.6 10^5/ml
- Live cell (10^5/ml) [8]: 5.7 10^5/ml and 7.1 10^5/ml and 6.6 10^5/ml
- Live cell (PBMC + LPS(5 ug/ml) + test article 0.001 uM, single replicates (1st, 2nd, 3rd)): 5.7 10^5/ml and 7.1 10^5/ml and 6.6 10^5/ml
- Live cell [9]: 6.2 10^5/ml
- Live cell (10^5/ml) [9]: 6.2 10^5/ml
- Live cell, Mean [9]: 6.2 10^5/ml
- Live cell (PBMC + LPS(5 ug/ml) + test article 0.01 uM, individual replicates (1st, 2nd, 3rd)): 6.4 10^5/ml and 6.0 10^5/ml and 6.1 10^5/ml
- Live cell [10]: 6.4 10^5/ml and 6.0 10^5/ml and 6.1 10^5/ml
- Live cell (10^5/ml) [10]: 6.4 10^5/ml and 6.0 10^5/ml and 6.1 10^5/ml
- Live cell (PBMC + LPS(5 ug/ml) + test article 0.01 uM, single replicates (1st, 2nd, 3rd)): 6.4 10^5/ml and 6.0 10^5/ml and 6.1 10^5/ml
- Live cell [11]: 5.9 10^5/ml
- Live cell (10^5/ml) [11]: 5.9 10^5/ml
- Live cell, Mean [11]: 5.9 10^5/ml
- Live cell [12]: 6.2 10^5/ml (2×) and 5.2 10^5/ml
- Live cell (10^5/ml) [12]: 6.2 10^5/ml (2×) and 5.2 10^5/ml
- Live cell (PBMC + LPS(5 ug/ml) + test article 0.1 uM, single replicates (1st, 2nd, 3rd)): 6.2 10^5/ml (2×) and 5.2 10^5/ml
- Live cell [13]: 6.5 10^5/ml
- Live cell (10^5/ml) [13]: 6.5 10^5/ml
- Live cell, Mean [13]: 6.5 10^5/ml
- Live cell [14]: 6.3 10^5/ml and 7.1 10^5/ml and 6.2 10^5/ml
- Live cell (10^5/ml) [14]: 6.3 10^5/ml and 7.1 10^5/ml and 6.2 10^5/ml
- Live cell (PBMC + LPS(5 ug/ml) + test article 1 uM, single replicates (1st, 2nd, 3rd)): 6.3 10^5/ml and 7.1 10^5/ml and 6.2 10^5/ml
- Live cell [15]: 6.7 10^5/ml
- Live cell (10^5/ml) [15]: 6.7 10^5/ml
- Live cell, Mean [15]: 6.7 10^5/ml
- Live cell [16]: 6.0 10^5/ml and 6.4 10^5/ml and 7.6 10^5/ml
- Live cell (10^5/ml) [16]: 6.0 10^5/ml and 6.4 10^5/ml and 7.6 10^5/ml
- Live cell (PBMC + LPS(5 ug/ml) + test article 10 uM, single replicates (1st, 2nd, 3rd)): 6.0 10^5/ml and 6.4 10^5/ml and 7.6 10^5/ml
- Live cell [17]: 5.8 10^5/ml
- Live cell (10^5/ml) [17]: 5.8 10^5/ml
- Live cell, Mean [17]: 5.8 10^5/ml
- Live cell [18]: 6.3 10^5/ml and 6.2 10^5/ml and 5.0 10^5/ml
- Live cell (10^5/ml) [18]: 6.3 10^5/ml and 6.2 10^5/ml and 5.0 10^5/ml
- Live cell (PBMC + LPS(5 ug/ml) + test article 100 uM, single replicates (1st, 2nd, 3rd)): 6.3 10^5/ml and 6.2 10^5/ml and 5.0 10^5/ml
- Live cell (PBMC + LPS(5 ug/ml), 0.001 uM, Mean): 6.5 10^5/ml
- Live cell (PBMC + LPS(5 ug/ml), 0.001 uM, single replicates): 5.7 10^5/ml and 7.1 10^5/ml and 6.6 10^5/ml
- Live cell (PBMC + LPS(5 ug/ml), 0.01 uM, Mean): 6.2 10^5/ml
- Live cell (PBMC + LPS(5 ug/ml), 0.01 uM, single replicates): 6.4 10^5/ml and 6.0 10^5/ml and 6.1 10^5/ml
- Live cell (PBMC + LPS(5 ug/ml), 0.1 uM, Mean): 5.9 10^5/ml
- Live cell (PBMC + LPS(5 ug/ml), 0.1 uM, single replicates): 6.2 10^5/ml (2×) and 5.2 10^5/ml
- Live cell (PBMC + LPS(5 ug/ml), 1 uM, Mean): 6.5 10^5/ml
- Live cell (PBMC + LPS(5 ug/ml), 1 uM, single replicates): 6.3 10^5/ml and 7.1 10^5/ml and 6.2 10^5/ml
- Live cell (PBMC + LPS(5 ug/ml), 10 uM, Mean): 6.7 10^5/ml
- Live cell (PBMC + LPS(5 ug/ml), 10 uM, single replicates): 6.0 10^5/ml and 6.4 10^5/ml and 7.6 10^5/ml
- Live cell (PBMC + LPS(5 ug/ml), 100 uM, Mean): 5.8 10^5/ml
- Live cell (PBMC + LPS(5 ug/ml), 100 uM, single replicates): 6.3 10^5/ml and 6.2 10^5/ml and 5.0 10^5/ml
- Live cell [19]: 6.5 10^5/ml
- Total cell count [19]: 7.7 10^5/ml
- Live cell [20]: 5.7 10^5/ml and 7.1 10^5/ml and 6.6 10^5/ml
- Total cell count [20]: 6.7 10^5/ml and 8.8 10^5/ml and 7.5 10^5/ml
- Viability [20]: 84.0% and 80.0% and 89.0%
- Live cell [21]: 6.2 10^5/ml
- Total cell count [21]: 8.1 10^5/ml
- Live cell [22]: 6.4 10^5/ml and 6.0 10^5/ml and 6.1 10^5/ml
- Total cell count [22]: 9.2 10^5/ml and 8.1 10^5/ml and 7.0 10^5/ml
- Viability [22]: 70.0% and 75.0% and 87.0%
- Live cell [23]: 5.9 10^5/ml
- Total cell count [23]: 7.8 10^5/ml
- Live cell [24]: 6.2 10^5/ml (2×) and 5.2 10^5/ml
- Total cell count [24]: 9.3 10^5/ml and 6.7 10^5/ml and 7.5 10^5/ml
- Viability [24]: 67.0% and 77.0% and 83.0%
- Live cell [25]: 6.5 10^5/ml
- Total cell count [25]: 9.8 10^5/ml
- Live cell [26]: 6.3 10^5/ml and 7.1 10^5/ml and 6.2 10^5/ml
- Total cell count [26]: 8.8 10^5/ml and 9.7 10^5/ml and 11.0 10^5/ml
- Viability [26]: 72.0% and 73.0% and 55.0%
- Live cell [27]: 6.7 10^5/ml
- Total cell count [27]: 9.1 10^5/ml
- Live cell [28]: 6.0 10^5/ml and 6.4 10^5/ml and 7.6 10^5/ml
- Total cell count [28]: 7.3 10^5/ml and 9.0 10^5/ml and 11.0 10^5/ml
- Viability [28]: 83.0% and 71.0% and 67.0%

Source: patent publication US20230146455A1, “TREATMENT OF INFLAMMATORY DISEASES WITH PEPTIDES AND PHARMACEUTICAL COMPOSITIONS” (Yuyu Pharma, Inc., priority 2020, published 2023)
